Laboratory results reported in ChEMBL document CHEMBL1148570, “Acryloylamino-salicylanilides as EGFR PTK inhibitors” (Bioorg Med Chem Lett, 2006).

Tests used:
[1] = molecular target: Epidermal growth factor receptor (Homo sapiens) (UniProt P00533); test: Inhibition of EGFR PTK at 0.1 uM
[2] = molecular target: Epidermal growth factor receptor (Homo sapiens) (UniProt P00533); test: Inhibition of EGFR PTK at 0.01 uM
[3] = molecular target: Epidermal growth factor receptor (Homo sapiens) (UniProt P00533); test: Inhibition of EGFR PTK at 10 uM
[4] = molecular target: Epidermal growth factor receptor (Homo sapiens) (UniProt P00533); test: Inhibition of EGFR PTK at 1 uM

Epidermal growth factor receptor (Homo sapiens), sequence (P00533 whole entry): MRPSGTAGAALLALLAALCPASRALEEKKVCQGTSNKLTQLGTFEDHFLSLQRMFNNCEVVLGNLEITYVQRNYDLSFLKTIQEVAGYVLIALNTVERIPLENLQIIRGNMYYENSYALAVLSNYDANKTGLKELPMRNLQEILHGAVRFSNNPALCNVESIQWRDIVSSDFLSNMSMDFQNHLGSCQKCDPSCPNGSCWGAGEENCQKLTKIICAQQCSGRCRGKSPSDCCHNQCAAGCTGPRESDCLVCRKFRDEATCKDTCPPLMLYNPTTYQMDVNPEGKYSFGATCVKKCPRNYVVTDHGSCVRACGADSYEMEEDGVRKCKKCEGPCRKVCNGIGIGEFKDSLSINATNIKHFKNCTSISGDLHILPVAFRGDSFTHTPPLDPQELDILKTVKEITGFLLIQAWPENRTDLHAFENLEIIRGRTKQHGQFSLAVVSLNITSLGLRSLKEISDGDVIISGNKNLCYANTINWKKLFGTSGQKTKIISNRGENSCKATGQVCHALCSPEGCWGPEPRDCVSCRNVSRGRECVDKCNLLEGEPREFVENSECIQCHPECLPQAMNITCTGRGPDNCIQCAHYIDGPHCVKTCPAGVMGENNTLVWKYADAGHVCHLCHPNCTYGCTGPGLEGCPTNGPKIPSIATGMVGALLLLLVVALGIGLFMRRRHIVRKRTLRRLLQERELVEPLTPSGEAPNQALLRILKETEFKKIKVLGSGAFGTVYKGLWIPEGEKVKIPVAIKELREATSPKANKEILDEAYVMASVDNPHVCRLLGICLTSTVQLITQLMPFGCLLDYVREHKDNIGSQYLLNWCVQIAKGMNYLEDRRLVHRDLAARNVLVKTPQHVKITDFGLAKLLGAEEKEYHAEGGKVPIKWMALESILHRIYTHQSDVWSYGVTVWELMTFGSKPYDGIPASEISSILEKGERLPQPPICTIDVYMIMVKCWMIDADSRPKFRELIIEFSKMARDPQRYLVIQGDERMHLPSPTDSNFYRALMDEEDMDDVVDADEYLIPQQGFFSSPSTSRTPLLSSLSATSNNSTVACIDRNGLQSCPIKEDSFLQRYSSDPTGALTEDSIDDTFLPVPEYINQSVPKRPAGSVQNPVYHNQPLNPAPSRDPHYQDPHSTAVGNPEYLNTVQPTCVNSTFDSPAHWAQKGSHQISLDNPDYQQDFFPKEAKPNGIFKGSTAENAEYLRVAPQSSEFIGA

SMILES	inhibition [1] [%]	inhibition [2] [%]	inhibition [3] [%]	inhibition [4] [%]
CCC(=O)Nc1ccc(C(=O)Nc2ccc(Oc3ccccc3)cc2)c(O)c1	–	–	48.5	–
C=CC(=O)Nc1ccc(O)c(C(=O)Nc2cccc(Br)c2)c1	89.5	52.9	93	90.6
C=CC(=O)Nc1ccc(C(=O)Nc2cccc(Oc3ccccc3)c2)c(OC)c1	–	–	1.59	–
C=CC(=O)Nc1ccc(C(=O)Nc2cccc(C(O)c3ccccc3)c2)c(OC)c1 (configuration not stated)	–	–	5.84	–
C=CC(=O)Nc1ccc(C(=O)Nc2cccc(C(O)c3ccccc3)c2)c(O)c1 (configuration not stated)	84.8	49.3	93.5	91.7
C=CC(=O)Nc1ccc(C(=O)Nc2ccc(Oc3ccccc3)cc2)c(O)c1	0.8	0	62.2	28.1
C=CC(=O)Nc1ccc(C(=O)Nc2cccc(Oc3ccccc3)c2)c(O)c1	86.6	18.8	91.2	89.3
C=CC(=O)Nc1ccc(O)c(C(=O)Nc2cccc(Cl)c2)c1	23.3	–	73.1	38.3

The remaining lines, values ahead:

inhibition [1] [%]	inhibition [2] [%]	inhibition [3] [%]	inhibition [4] [%]	SMILES
40.4	14.1	63.9	54.4	C=CC(=O)Nc1ccc(C(=O)Nc2cccc(C(=O)N(CC)CC)c2)c(O)c1
–	–	46.6	–	CCC(=O)Nc1ccc(C(=O)Nc2cccc(C(=O)N(CC)CC)c2)c(O)c1
88	75.1	91.9	91.2	C=CC(=O)Nc1ccc(C(=O)Nc2cccc(C(=O)N3CCCCC3)c2)c(O)c1
84.2	26	91	88.6	C=CC(=O)Nc1ccc(C(=O)Nc2cccc(C(=O)N3CCCC3)c2)c(O)c1
88.2	76	91.3	89.9	C=CC(=O)Nc1ccc(C(=O)Nc2cccc(Br)c2)c(O)c1
21.6	–	62.6	46.3	C=CC(=O)Nc1ccc(C(=O)Nc2cccc(Cl)c2)c(O)c1
